Results as given in ChEMBL document CHEMBL1201862, “PubChem BioAssay data set” (2004).
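Step 1: Grow cells in 96-well plates. Step 2: Expose to compound for 48 hours at 5 concentrations. Step 3: Interpolate endpoints linearly; if unreached, use highest concentration. GI50: concentration for 50% inhibition of growth.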 Calls of active or inactive are those of the source. Cut-off read from the data, not from the text of the source: active = GI50 up to about 1.1 µM and inactive = higher.

Experiments:
Experiment in all cases: inhibition of tumour cell growth, NCI panel, 48 h
CAKI-1 = system: CAKI-1
COLO 205 = system: COLO 205
HCT-116 = system: HCT-116
HCT-15 = system: HCT-15
HOP-62 = system: HOP-62
HT-29 = system: HT-29
KM12 = system: KM12
MDA-MB-435 = system: MDA-MB-435
MDA-N = system: MDA-N
NCI-H23 = system: NCI-H23
NCI-H522 = system: NCI-H522
NCI/ADR-RES = system: NCI/ADR-RES
OVCAR-5 = system: OVCAR-5
PC-3 = system: PC-3
RPMI-8226 = system: RPMI-8226
SF-295 = system: SF-295
SF-539 = system: SF-539
SK-OV-3 = system: SK-OV-3
SNB-19 = system: SNB-19
UO-31 = system: UO-31

| SMILES | GI50 (CAKI-1) | GI50 (COLO 205) | GI50 (HCT-116) | GI50 (HCT-15) [µM] | GI50 (HOP-62) | GI50 (HT-29) | GI50 (KM12) | GI50 (MDA-MB-435) | GI50 (MDA-N) | GI50 (NCI-H23) | GI50 (NCI-H522) | GI50 (NCI/ADR-RES) | GI50 (OVCAR-5) | GI50 (PC-3) | GI50 (RPMI-8226) | GI50 (SF-295) | GI50 (SF-539) | GI50 (SK-OV-3) | GI50 (SNB-19) | GI50 (UO-31) |
| --- | --- | --- | --- | --- | --- | --- | --- | --- | --- | --- | --- | --- | --- | --- | --- | --- | --- | --- | --- | --- |
| O=C1COC(c2ccccc2O)=NN1CCCN1CCCC1 | > 100 µM (inactive) | > 100 µM (inactive) | > 100 µM (inactive) | > 100 | > 100 µM (inactive) | > 100 µM (inactive) | > 100 µM (inactive) | > 100 µM (inactive) | > 100 µM (inactive) | > 100 µM (inactive) | > 100 µM (inactive) | > 100 µM (inactive) | > 100 µM (inactive) | > 100 µM (inactive) | > 100 µM (inactive) | > 100 µM (inactive) | > 100 µM (inactive) | > 100 µM (inactive) | > 100 µM (inactive) | > 100 µM (inactive) |
| O=C(/C=C(O)/C(=C/C(=O)c1ccccc1)NN=C(c1ccccc1)c1ccccc1)c1ccccc1 | 39.7 µM (inactive) | 40.6 µM (inactive) | 28.1 µM (inactive) | 23.5 | 21 µM (inactive) | 85.7 µM (inactive) | 42.3 µM (inactive) | 31 µM (inactive) | 31.8 µM (inactive) | 24 µM (inactive) | 15.7 µM (inactive) | 18.9 µM (inactive) | > 100 µM (inactive) | 35.9 µM (inactive) | 24.4 µM (inactive) | 23.5 µM (inactive) | 37.5 µM (inactive) | 25.8 µM (inactive) | 41.3 µM (inactive) | 47.6 µM (inactive) |
| COc1cc(C2c3cc4c(cc3OC(NNC(N)=S)C2C)OCO4)cc(OC)c1OC (stereo not drawn) | 0.54 µM (active) | 0.277 µM (active) | 0.244 µM (active) | 0.451 | 0.344 µM (active) | 0.269 µM (active) | 0.343 µM (active) | 0.0425 µM (active) | 0.084 µM (active) | 0.38 µM (active) | 0.303 µM (active) | 0.585 µM (active) | – | 0.302 µM (active) | 0.29 µM (active) | 0.231 µM (active) | 0.199 µM (active) | 0.53 µM (active) | 0.471 µM (active) | 0.931 µM (active) |
| Cc1cc(=O)nc(S(=O)(=O)NC(=S)Nc2ccc(Cl)cc2)[nH]1 | 77.8 µM (inactive) | > 100 µM (inactive) | > 100 µM (inactive) | > 100 | > 100 µM (inactive) | > 100 µM (inactive) | > 100 µM (inactive) | > 100 µM (inactive) | > 100 µM (inactive) | > 100 µM (inactive) | 27.1 µM (inactive) | > 100 µM (inactive) | > 100 µM (inactive) | > 100 µM (inactive) | 34.4 µM (inactive) | > 100 µM (inactive) | > 100 µM (inactive) | > 100 µM (inactive) | > 100 µM (inactive) | > 100 µM (inactive) |
| O=[N+]([O-])c1cc(-c2nnc(C34CC5CC(CC(C5)C3)C4)o2)cc([N+](=O)[O-])c1 | > 100 µM (inactive) | 17.9 µM (inactive) | 12.3 µM (inactive) | 21.1 | 59.4 µM (inactive) | 6.41 µM (inactive) | > 100 µM (inactive) | 19.1 µM (inactive) | 24.4 µM (inactive) | > 100 µM (inactive) | > 100 µM (inactive) | > 100 µM (inactive) | > 100 µM (inactive) | 45.2 µM (inactive) | 82.2 µM (inactive) | > 100 µM (inactive) | > 100 µM (inactive) | > 100 µM (inactive) | > 100 µM (inactive) | > 100 µM (inactive) |
| COC(=O)/C=C1\C(=O)N(C(C)=O)c2ccccc21 | 0.0671 µM (active) | 12.2 µM (inactive) | 8.28 µM (inactive) | 6.19 | 12.9 µM (inactive) | 5.28 µM (inactive) | 12.7 µM (inactive) | 11.3 µM (inactive) | 7.85 µM (inactive) | 14.6 µM (inactive) | 3.35 µM (inactive) | 13.9 µM (inactive) | 22.1 µM (inactive) | 13.8 µM (inactive) | 11.9 µM (inactive) | 17 µM (inactive) | 4.79 µM (inactive) | 14.8 µM (inactive) | 18 µM (inactive) | 12.9 µM (inactive) |
| O=c1[nH]nc(Cc2ccccc2)n1/N=C\c1ccccc1 | > 100 µM (inactive) | > 100 µM (inactive) | > 100 µM (inactive) | > 100 | 56.6 µM (inactive) | > 100 µM (inactive) | > 100 µM (inactive) | > 100 µM (inactive) | > 100 µM (inactive) | > 100 µM (inactive) | > 100 µM (inactive) | > 100 µM (inactive) | > 100 µM (inactive) | > 100 µM (inactive) | > 100 µM (inactive) | 43.9 µM (inactive) | > 100 µM (inactive) | – | – | > 100 µM (inactive) |
| CC(C)C(C=O)C(O)(C(F)(F)F)C(F)(F)F (stereo not drawn) | > 100 µM (inactive) | > 100 µM (inactive) | > 100 µM (inactive) | > 100 | – | > 100 µM (inactive) | > 100 µM (inactive) | > 100 µM (inactive) | > 100 µM (inactive) | > 100 µM (inactive) | > 100 µM (inactive) | > 100 µM (inactive) | > 100 µM (inactive) | > 100 µM (inactive) | > 100 µM (inactive) | > 100 µM (inactive) | > 100 µM (inactive) | > 100 µM (inactive) | > 100 µM (inactive) | > 100 µM (inactive) |
| COc1ccc(/C=C2\C[C@H]3[C@@H]4CCC5=C/C(=N/O)CC[C@]5(C)[C@H]4CC[C@]3(C)\C2=N\O)cc1OC | 8.43 µM (inactive) | – | 6.56 µM (inactive) | 14.7 | 40.6 µM (inactive) | 7.66 µM (inactive) | 8.04 µM (inactive) | 18.8 µM (inactive) | 11.6 µM (inactive) | 43.4 µM (inactive) | 23.1 µM (inactive) | 26.4 µM (inactive) | 41 µM (inactive) | 10.7 µM (inactive) | 4.49 µM (inactive) | 7 µM (inactive) | 16.3 µM (inactive) | 39.3 µM (inactive) | 52.6 µM (inactive) | 4.5 µM (inactive) |
| CC(C)(C)OC(=O)N1CC(O)O[C@H](c2ccccc2)[C@@H]1c1ccccc1 (stereo partly drawn) | 44.9 µM (inactive) | 31 µM (inactive) | 44.6 µM (inactive) | 18 | 16.3 µM (inactive) | 20.6 µM (inactive) | 19.2 µM (inactive) | 17.3 µM (inactive) | 28.2 µM (inactive) | 15.9 µM (inactive) | 21.2 µM (inactive) | 26.4 µM (inactive) | 17.9 µM (inactive) | 14.7 µM (inactive) | 24.7 µM (inactive) | 16.4 µM (inactive) | – | 14.9 µM (inactive) | 15.7 µM (inactive) | 17.6 µM (inactive) |
| N=C(N)c1ccc2oc3ccc(C(=N)N)cc3c(=O)c2c1 | > 100 µM (inactive) | > 100 µM (inactive) | > 100 µM (inactive) | > 100 | – | > 100 µM (inactive) | > 100 µM (inactive) | > 100 µM (inactive) | > 100 µM (inactive) | > 100 µM (inactive) | > 100 µM (inactive) | > 100 µM (inactive) | > 100 µM (inactive) | > 100 µM (inactive) | > 100 µM (inactive) | > 100 µM (inactive) | > 100 µM (inactive) | – | > 100 µM (inactive) | > 100 µM (inactive) |
| Fc1ccc(OCc2ccc3nc(-c4ccccc4)c(Cl)nc3c2)cc1 | 22.1 µM (inactive) | 37.1 µM (inactive) | 31.6 µM (inactive) | > 100 | 16.3 µM (inactive) | 65.2 µM (inactive) | 51.6 µM (inactive) | 91.4 µM (inactive) | 72.4 µM (inactive) | 25.3 µM (inactive) | 6.19 µM (inactive) | 34.1 µM (inactive) | 41.7 µM (inactive) | 37.2 µM (inactive) | 96.2 µM (inactive) | 21.4 µM (inactive) | 16 µM (inactive) | – | > 10 µM (inactive) | > 100 µM (inactive) |
| CN(C)c1nc(N(C)C)nc(N(C)C23CC4CC(CC(C4)C2)C3)n1 | > 100 µM (inactive) | 15.1 µM (inactive) | 20.5 µM (inactive) | > 100 | 24 µM (inactive) | – | 44.5 µM (inactive) | 40.2 µM (inactive) | 21 µM (inactive) | 13.4 µM (inactive) | 16.9 µM (inactive) | > 100 µM (inactive) | 21.4 µM (inactive) | 24.5 µM (inactive) | 23.7 µM (inactive) | 18.4 µM (inactive) | 31.8 µM (inactive) | 17.9 µM (inactive) | 31.7 µM (inactive) | 61.1 µM (inactive) |
| CC(=O)N1C(c2[nH]c3ccccc3c2Cc2ccccc2)CCN1c1ccccc1 (stereo not drawn) | 8.47 µM (inactive) | 8.81 µM (inactive) | 4.72 µM (inactive) | > 10 | > 10 µM (inactive) | > 10 µM (inactive) | – | 9.06 µM (inactive) | 7.29 µM (inactive) | 8.59 µM (inactive) | 8.47 µM (inactive) | 9.02 µM (inactive) | > 10 µM (inactive) | 3.24 µM (inactive) | 6.49 µM (inactive) | 4.35 µM (inactive) | > 10 µM (inactive) | > 10 µM (inactive) | > 10 µM (inactive) | 8.73 µM (inactive) |
| CC(=O)OCC1OC(Oc2cc(C)c(O)cc2C/C=C(\C)CC/C=C(\C)CC(=O)CC(C)C)C(O)C(OC(C)=O)C1OC(C)=O (stereo not drawn) | 30.3 µM (inactive) | 10.2 µM (inactive) | 18.2 µM (inactive) | 14.3 | 11.4 µM (inactive) | 6 µM (inactive) | 12.5 µM (inactive) | 15 µM (inactive) | 18 µM (inactive) | 6.95 µM (inactive) | 13.6 µM (inactive) | 11.4 µM (inactive) | 1.83 µM (inactive) | 14.2 µM (inactive) | 9.16 µM (inactive) | 15.1 µM (inactive) | – | 26.2 µM (inactive) | 7.93 µM (inactive) | 3.28 µM (inactive) |
